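Dose response: 5 concentrations. Exposure: 48 h. Format: 96-well plates. Endpoint: linear interpolation; highest concentration if not reached. Abbreviation: GI50, concentration required for 50% inhibition of growth.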 Calls of active or inactive are those of the source. No stated cut-off is given here; in the data, active = GI50 up to about 1.1 µM and inactive = higher.

Some test systems named below: SN12C; RXF 393; U-251; OVCAR-4; SF-539; UO-31; SR; SF-268; HOP-62; M14; HCC 2998; SK-MEL-28; UACC-257; NCI-H23; NCI-H460; K562; SNB-75.
Experiment in all cases: NCI-60 cell line screen, 48 h

As to `COc1ccc2c(c1)[n+]([O-])c(C(=O)CC(=O)C(=O)Nc1cccc(C)c1C)c(C)[n+]2[O-]`, the GI50 in the assay with SN12C, with RXF 393, in the assay with U-251, in the assay with OVCAR-4, with SF-539 and in the assay on UO-31 was > 100 µM (inactive) in each case. Further, the GI50 in the assay on SR, with SF-268, in the assay on HOP-62, with M14, with HCC 2998 and in the assay on SK-MEL-28 was > 100 µM (inactive) throughout. The GI50 in the assay on UACC-257, with NCI-H23, in the assay with NCI-H460 and with K562 was > 100 µM (inactive) each time.

With `CCOC(=O)CCC(=O)C1c2cccc(O)c2C(=O)c2c(O)cc(C)cc21` (stereo not given), the GI50 is 1.79 µM (inactive) in the assay on SN12C; 0.391 µM (active) with RXF 393; 0.578 µM (active) in the assay on SNB-75; 0.252 µM (active) in the assay on U-251; 0.569 µM (active) with OVCAR-4; 0.226 µM (active) with SF-539. The GI50 is 0.627 µM (active) with UO-31; 0.743 µM (active) in the assay on SR; 0.542 µM (active) in the assay with SF-268; 0.656 µM (active) in the assay with HOP-62; 1.4 µM (inactive) with M14; 0.507 µM (active) in the assay with HCC 2998. Besides, the GI50 in the assay with SK-MEL-28 was 1.48 µM (inactive); in the assay with UACC-257, 1.41 µM (inactive); in the assay with NCI-H23 it was 0.962 µM (active); in the assay with NCI-H460, 0.342 µM (active); with K562, 0.429 µM (active).

Turning to `CCOC(=O)COc1ccccc1/C=C1\CCC(CN(C)C)C1=O` (stereo not given), the GI50 in the assay on SN12C was 5.96 µM (inactive); in the assay on RXF 393 it was 2.93 µM (inactive); in the assay with SNB-75 it was 15.9 µM (inactive); in the assay with U-251 it was 8 µM (inactive); in the assay with OVCAR-4, 16.5 µM (inactive); in the assay with SF-539, 11.9 µM (inactive). Further, the GI50 in the assay with UO-31 is 16.3 µM (inactive); with SF-268, 5.45 µM (inactive); with HOP-62, 20.6 µM (inactive); with M14, 8.71 µM (inactive); with HCC 2998 it was 2.46 µM (inactive); in the assay with SK-MEL-28, 2.62 µM (inactive). Moreover, the GI50 is 5.66 µM (inactive) with UACC-257, 8.41 µM (inactive) in the assay with NCI-H23, 10.8 µM (inactive) in the assay with NCI-H460 and 1.49 µM (inactive) with K562.

Turning to `Cc1ccc(N2C(=O)/C(=C3\Sc4c(nc(C)n(C)c4=O)N3c3ccccc3)SC2=S)cc1`, the GI50 is 43.4 µM (inactive) in the assay on SN12C; 18.7 µM (inactive) with RXF 393; 28.6 µM (inactive) in the assay with SNB-75; 42.7 µM (inactive) with U-251; 76.9 µM (inactive) with OVCAR-4; 15.3 µM (inactive) with SF-539. Further, the GI50 in the assay on UO-31 was > 100 µM (inactive); in the assay with SR, > 100 µM (inactive); in the assay on SF-268, 34.6 µM (inactive); in the assay on M14, > 100 µM (inactive); with HCC 2998 it was > 100 µM (inactive); in the assay with SK-MEL-28, 41.1 µM (inactive). The GI50 is > 100 µM (inactive) in the assay on UACC-257, > 100 µM (inactive) in the assay on NCI-H23, 19.1 µM (inactive) with NCI-H460 and > 100 µM (inactive) with K562.

In the case of `CC1COC(C)(C)P(=O)(c2ccccc2)C1` (stereo not given), the GI50 in the assay with SN12C was > 100 µM (inactive); with RXF 393, > 100 µM (inactive); in the assay on SNB-75 it was 49.4 µM (inactive); in the assay on U-251 it was > 100 µM (inactive); in the assay with SF-539, > 100 µM (inactive); in the assay with UO-31, > 100 µM (inactive). Moreover, the GI50 with SR, in the assay on HOP-62, with M14, in the assay on HCC 2998, with SK-MEL-28 and with UACC-257 was > 100 µM (inactive) each time. The GI50 in the assay on NCI-H23, in the assay with NCI-H460 and in the assay with K562 was > 100 µM (inactive) in each case.

`CCOC(=O)/C(=C\c1ccc(OCc2ccccc2)c(OC)c1)C(=O)c1ccccc1`: the GI50 in the assay on SN12C was 23 µM (inactive); with U-251, 17.3 µM (inactive); with OVCAR-4, 36 µM (inactive); in the assay on SF-539 it was 16.7 µM (inactive); in the assay on UO-31, 18.1 µM (inactive); in the assay on SR it was 33 µM (inactive). In addition, the GI50 is 18.9 µM (inactive) with HOP-62; 15 µM (inactive) in the assay with M14; 36.1 µM (inactive) in the assay with HCC 2998; 14.6 µM (inactive) with SK-MEL-28; > 10 µM (inactive) in the assay on UACC-257; 19.3 µM (inactive) in the assay on NCI-H23. In addition, the GI50 in the assay with K562 is 19.9 µM (inactive).

For `O=C1OC(Cc2ccccc2)(N2CCCC2=O)C1c1ccccc1` (stereo not given), the GI50 in the assay on SN12C was 67.5 µM (inactive); in the assay on SNB-75, 30.8 µM (inactive); in the assay on U-251, 44.7 µM (inactive); with OVCAR-4, > 100 µM (inactive); with UO-31, > 100 µM (inactive); with SR it was 56.4 µM (inactive). Besides, the GI50 in the assay on SF-268 was > 100 µM (inactive); in the assay with HOP-62, > 100 µM (inactive); with M14, > 100 µM (inactive); in the assay with SK-MEL-28, > 100 µM (inactive); with UACC-257 it was > 100 µM (inactive); with NCI-H23, 70.5 µM (inactive). In addition, the GI50 was > 100 µM (inactive) in the assay on NCI-H460 and 63.8 µM (inactive) with K562.

Regarding `CC(=O)OCc1c2ccccc2c(C)c2c1cc(F)c1ccccc12`, the GI50 in the assay on SN12C is 15.1 µM (inactive); with RXF 393, 25.6 µM (inactive); with SNB-75, 22.9 µM (inactive); with U-251, 23.7 µM (inactive); in the assay on OVCAR-4, 24.2 µM (inactive); with SF-539, 23.8 µM (inactive). For the same compound, the GI50 in the assay with UO-31 is 38 µM (inactive); in the assay with SR, 12.6 µM (inactive); in the assay with SF-268 it was 29.8 µM (inactive); with HOP-62 it was 45.6 µM (inactive); in the assay on M14 it was 34 µM (inactive); in the assay on HCC 2998, 25.9 µM (inactive). Further, the GI50 in the assay on SK-MEL-28 was 97.5 µM (inactive); in the assay on UACC-257 it was > 100 µM (inactive); in the assay with NCI-H23, 23.1 µM (inactive); in the assay on K562, 21.2 µM (inactive).

As to `Cn1nc(-c2ccccc2)c(C(=O)/C=C/c2ccc(F)cc2)c(N2CCOCC2)c1=O`, the GI50 with SN12C was 28.3 µM (inactive); with RXF 393 it was 13.6 µM (inactive); with U-251, 16.7 µM (inactive); with SF-539, 17.3 µM (inactive); in the assay with UO-31, 12.9 µM (inactive); in the assay with SF-268, 19.1 µM (inactive). The GI50 is 21.8 µM (inactive) with M14; 15.8 µM (inactive) with SK-MEL-28; > 10 µM (inactive) in the assay on NCI-H23; 24.4 µM (inactive) with NCI-H460; 16.8 µM (inactive) with K562.

As for `COC(=O)C(=O)C(CC(=O)Nc1cc(Cl)ccc1Cl)C(=O)OC` (stereo not given), the GI50 in the assay on SN12C, with RXF 393, in the assay on SNB-75, with U-251, with OVCAR-4 and in the assay on SF-539 was > 100 µM (inactive) in each case. The GI50 in the assay on UO-31, in the assay on SR, with SF-268, in the assay with HOP-62, with M14 and with HCC 2998 was > 100 µM (inactive) throughout. The GI50 in the assay on SK-MEL-28, with UACC-257, with NCI-H23, in the assay with NCI-H460 and in the assay with K562 was > 100 µM (inactive) throughout.

Consider `COc1ccc(C2=C(Cl)c3cc(OC)c(OC)cc3C2)cc1OC`, for which the GI50 is > 100 µM (inactive) in the assay on SN12C; 24.4 µM (inactive) with RXF 393; > 100 µM (inactive) in the assay on SNB-75; > 100 µM (inactive) in the assay on U-251; > 100 µM (inactive) in the assay on OVCAR-4; > 100 µM (inactive) in the assay with SF-539. For the same compound, the GI50 in the assay on UO-31, with SR, in the assay with SF-268, with HOP-62, with M14 and in the assay on HCC 2998 was > 100 µM (inactive) in each case. Besides, the GI50 in the assay with SK-MEL-28, with UACC-257, in the assay on NCI-H23 and in the assay on K562 was > 100 µM (inactive) in each case.

On to `CC(=O)C(CN(C(C)C)C(C)C)C(c1ccccc1)c1c(O)c2ccccc2oc1=O` (stereo not given), for which the GI50 is > 100 µM (inactive) in the assay on SN12C; 60.1 µM (inactive) with RXF 393; 16.7 µM (inactive) in the assay on SNB-75; 56.2 µM (inactive) in the assay with U-251; > 100 µM (inactive) with OVCAR-4; > 100 µM (inactive) in the assay with SF-539. The GI50 with UO-31, with SR, in the assay with SF-268, in the assay on HOP-62, with M14 and with SK-MEL-28 was > 100 µM (inactive) each time. Further, the GI50 in the assay with UACC-257, with NCI-H23, in the assay on NCI-H460 and in the assay with K562 was > 100 µM (inactive) throughout.

On to `CC(=O)N1CCN(c2ccc(OCC3COC(Cn4ccnc4)(c4ccc(Cl)cc4Cl)O3)cc2)CC1` (stereo not given) [KETOCONAZOLE], for which the GI50 is 52.4 µM (inactive) in the assay on SN12C; 22.2 µM (inactive) in the assay with RXF 393; 39.1 µM (inactive) in the assay with OVCAR-4; 25.8 µM (inactive) in the assay with UO-31; 20.2 µM (inactive) in the assay with SR; 39.4 µM (inactive) in the assay with HOP-62. Besides, the GI50 in the assay on M14 was 22.4 µM (inactive); with HCC 2998, 28.4 µM (inactive); with SK-MEL-28, 34.6 µM (inactive); with UACC-257, 20.7 µM (inactive); in the assay on NCI-H460 it was 32.5 µM (inactive); in the assay on K562, 28.7 µM (inactive).

For the origin of these results see ChEMBL document CHEMBL1201862, “PubChem BioAssay data set” (2004).
